Measured values taken from ChEMBL document CHEMBL1743341, “Cytochrome p450 enzymes mechanism based inhibitors: common sub-structures and reactivity” (Curr Drug Metab, 2005).

Experiments:
CYP2B4 = biological target: T1, CYP2B4 (Oryctolagus cuniculus, UniProt P00178); experiment: (§1) Mechanism based inhibition of rabbit cytochrome P450 CYP2B4; format: ADME; conditions: rabbit
T1 sequence (P00178 whole entry): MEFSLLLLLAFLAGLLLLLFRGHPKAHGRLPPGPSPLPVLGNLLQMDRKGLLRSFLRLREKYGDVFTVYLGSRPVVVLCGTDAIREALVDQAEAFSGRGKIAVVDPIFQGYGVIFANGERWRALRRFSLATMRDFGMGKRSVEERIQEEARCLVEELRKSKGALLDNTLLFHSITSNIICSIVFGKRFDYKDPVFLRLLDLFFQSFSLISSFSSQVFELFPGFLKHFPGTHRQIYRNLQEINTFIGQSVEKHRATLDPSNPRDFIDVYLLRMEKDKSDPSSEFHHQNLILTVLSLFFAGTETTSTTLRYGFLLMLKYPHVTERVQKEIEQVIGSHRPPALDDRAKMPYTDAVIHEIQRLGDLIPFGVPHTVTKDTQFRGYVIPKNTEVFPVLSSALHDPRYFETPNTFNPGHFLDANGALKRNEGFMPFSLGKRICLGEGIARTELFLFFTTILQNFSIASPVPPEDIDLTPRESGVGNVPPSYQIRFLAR

Cytochrome P450 2B4 = biological target: T2, Cytochrome P450 2B4 (Oryctolagus cuniculus, UniProt P00178); experiment: as §1; format: ADME
T2 sequence (P00178 whole entry): T1 sequence (P00178 whole entry)

CYP2B1 [1] = biological target: T3, CYP2B1 (Rattus norvegicus, UniProt P00176); experiment: (§2) Mechanism based inhibition of rat cytochrome P450 CYP2B1; format: ADME; conditions: rat
T3 sequence (P00176 whole entry): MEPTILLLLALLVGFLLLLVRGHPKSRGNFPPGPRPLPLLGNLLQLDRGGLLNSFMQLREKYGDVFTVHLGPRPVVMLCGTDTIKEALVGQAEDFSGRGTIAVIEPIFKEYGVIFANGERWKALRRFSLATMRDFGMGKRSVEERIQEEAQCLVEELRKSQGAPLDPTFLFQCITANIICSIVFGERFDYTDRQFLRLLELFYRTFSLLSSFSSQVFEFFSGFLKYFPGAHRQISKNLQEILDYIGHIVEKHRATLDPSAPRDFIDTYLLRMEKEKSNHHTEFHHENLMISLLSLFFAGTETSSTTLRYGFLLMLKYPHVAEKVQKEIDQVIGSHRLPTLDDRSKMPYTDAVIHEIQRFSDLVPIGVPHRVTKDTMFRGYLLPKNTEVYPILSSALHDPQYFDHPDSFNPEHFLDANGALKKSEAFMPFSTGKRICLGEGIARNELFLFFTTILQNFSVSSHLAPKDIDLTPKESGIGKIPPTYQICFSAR

Cytochrome P450 2B1 [2] = biological target: T4, Cytochrome P450 2B1 (Rattus norvegicus, UniProt P00176); experiment: as §2; format: ADME
T4 sequence (P00176 whole entry): T3 sequence (P00176 whole entry)

CYP1A1 = biological target: T5, CYP1A1 (Rattus norvegicus, UniProt P00185); experiment: (§3) Mechanism based inhibition of rat cytochrome P450 CYP1A1 measured by ethoxyresorufin O-deethylation warfarin R-6 and R-8 hydroxylation; format: ADME; conditions: rat
T5 sequence (P00185 whole entry): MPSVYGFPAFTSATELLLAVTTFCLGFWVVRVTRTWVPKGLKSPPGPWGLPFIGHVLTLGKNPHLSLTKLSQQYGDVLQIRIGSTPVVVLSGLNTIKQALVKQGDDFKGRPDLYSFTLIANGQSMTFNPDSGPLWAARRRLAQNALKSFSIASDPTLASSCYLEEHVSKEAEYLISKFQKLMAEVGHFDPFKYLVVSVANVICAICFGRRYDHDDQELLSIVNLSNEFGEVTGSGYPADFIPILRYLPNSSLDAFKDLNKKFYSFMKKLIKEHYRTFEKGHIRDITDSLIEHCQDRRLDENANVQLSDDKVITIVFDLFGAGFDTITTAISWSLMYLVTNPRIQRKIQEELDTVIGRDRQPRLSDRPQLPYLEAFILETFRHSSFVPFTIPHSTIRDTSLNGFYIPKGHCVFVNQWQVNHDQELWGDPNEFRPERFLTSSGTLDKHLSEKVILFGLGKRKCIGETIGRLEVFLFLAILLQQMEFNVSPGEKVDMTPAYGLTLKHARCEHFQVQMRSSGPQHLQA

Cytochrome P450 1A1 [3] = biological target: T6, Cytochrome P450 1A1 (Rattus norvegicus, UniProt P00185); experiment: as §3; format: ADME
T6 sequence (P00185 whole entry): T5 sequence (P00185 whole entry)

Cytochrome P450 2B10 = Cytochrome P450 2B10 (Mus musculus, UniProt P12791); experiment: Mechanism based inhibition of mouse cytochrome P450 CYP2B10; format: ADME
Cytochrome P450 2B10, sequence (P12791 whole entry): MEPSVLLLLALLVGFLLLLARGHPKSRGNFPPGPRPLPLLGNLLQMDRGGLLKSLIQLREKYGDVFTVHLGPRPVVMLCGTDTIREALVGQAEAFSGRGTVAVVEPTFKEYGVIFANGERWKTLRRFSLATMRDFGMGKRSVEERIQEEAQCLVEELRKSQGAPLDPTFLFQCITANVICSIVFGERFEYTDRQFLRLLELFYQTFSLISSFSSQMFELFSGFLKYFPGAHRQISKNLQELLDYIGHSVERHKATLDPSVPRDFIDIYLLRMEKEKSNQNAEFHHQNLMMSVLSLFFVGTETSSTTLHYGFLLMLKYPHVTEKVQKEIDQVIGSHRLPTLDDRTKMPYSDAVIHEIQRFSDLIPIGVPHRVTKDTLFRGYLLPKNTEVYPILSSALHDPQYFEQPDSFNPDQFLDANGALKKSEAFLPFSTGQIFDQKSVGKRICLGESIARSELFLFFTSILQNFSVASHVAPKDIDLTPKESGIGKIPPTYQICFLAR

Cytochrome P450 1A1 [4] = biological target: T7, Cytochrome P450 1A1 (Homo sapiens, UniProt P04798); experiment: Mechanism based inhibition of human cytochrome P450 1A1 measured by 7-ethoxyresorufin O-deethylation (EROD); format: ADME
T7 sequence (P04798 whole entry): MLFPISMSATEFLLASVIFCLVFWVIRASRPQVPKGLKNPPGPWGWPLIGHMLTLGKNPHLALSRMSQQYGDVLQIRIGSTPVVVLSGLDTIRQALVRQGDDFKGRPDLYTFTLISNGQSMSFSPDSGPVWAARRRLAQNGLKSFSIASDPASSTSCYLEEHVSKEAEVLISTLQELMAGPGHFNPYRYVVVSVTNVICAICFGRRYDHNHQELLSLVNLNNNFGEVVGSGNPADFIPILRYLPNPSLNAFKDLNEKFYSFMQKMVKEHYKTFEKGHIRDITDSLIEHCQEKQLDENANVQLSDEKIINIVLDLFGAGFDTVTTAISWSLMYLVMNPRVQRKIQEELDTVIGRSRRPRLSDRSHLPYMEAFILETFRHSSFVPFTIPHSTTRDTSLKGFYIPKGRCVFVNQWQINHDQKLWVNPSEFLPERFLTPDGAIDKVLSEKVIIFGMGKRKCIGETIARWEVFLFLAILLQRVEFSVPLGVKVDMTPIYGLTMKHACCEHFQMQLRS

Cytochrome P450 1A2 = biological target: T8, Cytochrome P450 1A2 (Homo sapiens, UniProt P05177); experiment: Mechanism based inhibition of human cytochrome P450 1A2 measured by 7-ethoxyresorufin O-deethylation (EROD); format: ADME
T8 sequence (P05177 whole entry): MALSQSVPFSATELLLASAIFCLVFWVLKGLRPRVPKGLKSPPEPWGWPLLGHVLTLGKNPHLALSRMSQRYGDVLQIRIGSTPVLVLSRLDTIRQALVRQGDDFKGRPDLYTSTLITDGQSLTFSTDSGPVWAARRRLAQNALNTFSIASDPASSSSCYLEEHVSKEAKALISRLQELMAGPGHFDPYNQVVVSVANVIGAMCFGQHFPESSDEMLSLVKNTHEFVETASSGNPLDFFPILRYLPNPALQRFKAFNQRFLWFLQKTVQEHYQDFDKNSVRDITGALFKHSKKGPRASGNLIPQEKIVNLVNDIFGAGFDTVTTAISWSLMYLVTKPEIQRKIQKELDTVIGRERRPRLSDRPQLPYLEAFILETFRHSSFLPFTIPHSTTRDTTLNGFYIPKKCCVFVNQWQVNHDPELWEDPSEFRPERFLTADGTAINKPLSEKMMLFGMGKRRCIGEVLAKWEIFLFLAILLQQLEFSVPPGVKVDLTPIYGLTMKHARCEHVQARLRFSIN

Cytochrome P450 1B1 = biological target: T9, Cytochrome P450 1B1 (Homo sapiens, UniProt Q16678); experiment: Mechanism based inhibition of human cytochrome P450 1B1 measured by 7-ethoxyresorufin O-deethylation (EROD); format: ADME
T9 sequence (Q16678 whole entry): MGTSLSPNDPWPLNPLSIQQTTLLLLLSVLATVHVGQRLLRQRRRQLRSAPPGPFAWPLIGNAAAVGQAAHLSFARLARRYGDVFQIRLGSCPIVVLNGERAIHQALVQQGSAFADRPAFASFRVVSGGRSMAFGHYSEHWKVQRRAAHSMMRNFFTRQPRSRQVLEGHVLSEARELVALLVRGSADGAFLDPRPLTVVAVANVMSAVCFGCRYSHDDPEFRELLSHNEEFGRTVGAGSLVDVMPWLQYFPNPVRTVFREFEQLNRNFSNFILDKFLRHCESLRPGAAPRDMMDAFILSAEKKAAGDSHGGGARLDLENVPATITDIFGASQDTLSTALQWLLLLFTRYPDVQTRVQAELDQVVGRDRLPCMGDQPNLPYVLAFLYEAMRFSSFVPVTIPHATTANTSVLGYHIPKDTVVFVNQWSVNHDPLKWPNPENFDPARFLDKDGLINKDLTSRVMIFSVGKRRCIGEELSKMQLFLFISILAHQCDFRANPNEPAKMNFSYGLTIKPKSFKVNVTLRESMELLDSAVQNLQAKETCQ

CYP2B1 [5] = biological target: T3, CYP2B1; experiment: (§4) Mechanism based inhibition of rat cytochrome P450 CYP2B1 measured by 7-ethoxycoumarin O-deethylase activity; format: ADME; conditions: rat, probe 7-ethoxycoumarin (O-deethylase activity)
Cytochrome P450 2B1 [6] = biological target: T4, Cytochrome P450 2B1; experiment: as §4; format: ADME
Cytochrome P450 2E1 [7] = biological target: T10, Cytochrome P450 2E1 (Rattus norvegicus, UniProt P05182); experiment: Mechanism based inhibition of rabbit cytochrome P450 CYP2E1 measured by P-nitrophenol (PNP) hydroxylase activity; format: ADME, Oryctolagus cuniculus; conditions: target entry is the homologue from another species
T10 sequence (P05182 whole entry): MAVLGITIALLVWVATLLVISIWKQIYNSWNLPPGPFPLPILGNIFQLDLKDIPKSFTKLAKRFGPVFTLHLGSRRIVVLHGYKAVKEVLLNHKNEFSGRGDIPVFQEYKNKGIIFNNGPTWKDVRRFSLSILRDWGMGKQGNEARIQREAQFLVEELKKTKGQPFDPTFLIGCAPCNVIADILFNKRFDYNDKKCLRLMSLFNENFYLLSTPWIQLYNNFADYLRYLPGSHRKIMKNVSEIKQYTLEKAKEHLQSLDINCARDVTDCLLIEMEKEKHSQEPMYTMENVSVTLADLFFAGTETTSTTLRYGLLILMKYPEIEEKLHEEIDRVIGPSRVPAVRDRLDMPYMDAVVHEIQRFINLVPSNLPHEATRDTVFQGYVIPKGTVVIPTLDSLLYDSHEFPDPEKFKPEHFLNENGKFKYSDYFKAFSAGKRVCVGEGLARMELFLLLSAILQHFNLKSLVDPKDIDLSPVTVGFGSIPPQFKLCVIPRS

Cytochrome P450 2E1 [8] = biological target: T10, Cytochrome P450 2E1; experiment: Mechanism based inhibition of rat cytochrome P450 CYP2E1; format: ADME
[9] = biological target: Cytochrome P450 11B1, mitochondrial (Bos taurus, UniProt P15150); experiment: Mechanism based inhibition of bovine cytochrome P450 CYP11B1; format: ADME; conditions: cattle
Cytochrome P450 11B1, mitochondrial, sequence (P15150 whole entry): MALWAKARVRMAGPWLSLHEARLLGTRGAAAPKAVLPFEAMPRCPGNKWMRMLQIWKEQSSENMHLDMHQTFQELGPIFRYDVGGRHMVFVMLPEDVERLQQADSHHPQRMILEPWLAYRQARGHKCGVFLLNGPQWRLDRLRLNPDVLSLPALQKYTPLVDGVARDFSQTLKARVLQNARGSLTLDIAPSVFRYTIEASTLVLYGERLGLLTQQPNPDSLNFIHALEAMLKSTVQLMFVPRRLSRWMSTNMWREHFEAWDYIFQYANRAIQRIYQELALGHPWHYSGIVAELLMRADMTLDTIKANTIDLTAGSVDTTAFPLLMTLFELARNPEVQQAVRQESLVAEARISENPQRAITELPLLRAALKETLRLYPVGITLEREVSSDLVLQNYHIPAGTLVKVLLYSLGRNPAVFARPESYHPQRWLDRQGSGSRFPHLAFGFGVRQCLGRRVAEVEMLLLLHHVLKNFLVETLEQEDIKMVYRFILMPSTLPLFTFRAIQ

Cn1c2ccccc2c2ccccc21
kinact (CYP2B4): 0.0035 s⁻¹ | Ki (Cytochrome P450 2B4): 23 µM | kinact (CYP2B1 [1]): 0.0233 s⁻¹ | Ki (Cytochrome P450 2B1 [2]): 5.2 µM

O=C(NCCc1ccc([N+](=O)[O-])cc1)C(Cl)Cl
kinact (CYP1A1): 0.00867 s⁻¹ | Ki (Cytochrome P450 1A1 [3]): 2.7 µM

Cc1c(N)c(C)c([N+](=O)[O-])c(C(C)(C)C)c1[N+](=O)[O-]
mechanism based inhibition (Cytochrome P450 2B10): Cytochrome P450 mechanistic inhibitor: PMID 9172959

C#Cc1ccc2ccccc2c1
mechanism based inhibition (Cytochrome P450 1A1 [4]): Cytochrome P450 mechanistic inhibitor: PMID 9760279 | mechanism based inhibition (Cytochrome P450 1A2): Cytochrome P450 mechanistic inhibitor: PMID 9760279 | mechanism based inhibition (Cytochrome P450 1B1): Cytochrome P450 mechanistic inhibitor: PMID 9760279 | kinact (CYP2B1 [5]): 0.0138 s⁻¹ | Ki (Cytochrome P450 2B1 [6]): 0.08 µM

CC(C)(C)N=C=S
mechanism based inhibition (Cytochrome P450 2E1 [7]): Cytochrome P450 mechanistic inhibitor: PMID 9778311 | mechanism based inhibition (Cytochrome P450 2E1 [8]): Cytochrome P450 mechanistic inhibitor: PMID 9778311

C=CC[C@]12CC[C@H]3[C@@H](CCC4=CC(=O)CC[C@@]43C)[C@@H]1CC[C@@H]2C(C)=O
mechanism based inhibition [9]: Cytochrome P450 mechanistic inhibitor: PMID 8645613
